Patent publication US8076324B2, “Di(hetero)arylcyclohexane derivatives, their preparation, their use and pharmaceutical compositions comprising them” (Sanofi-Aventis, priority 2007, dated 2011)

biological target: T1, myocardial ATP-sensitive potassium channel (SUR2A/Kir6.2) (UniProt Q61743+Q63563); assay: Rubidium efflux test on HEK293 cells transfected with SUR2A and Kir6.2 (myocardial action); assay type: cell-based, SUR2A from the rat, Kir6.2 from the mouse; conditions: HEK293 cells transfected with SUR2A/Kir6.2; KATP channels opened by rilmakalim; 25 min incubation; read-out: IC50 values for the inhibition of the rubidium efflux
T1 construct: expressed in transfected cells
T1 sequence (Q63563 whole entry): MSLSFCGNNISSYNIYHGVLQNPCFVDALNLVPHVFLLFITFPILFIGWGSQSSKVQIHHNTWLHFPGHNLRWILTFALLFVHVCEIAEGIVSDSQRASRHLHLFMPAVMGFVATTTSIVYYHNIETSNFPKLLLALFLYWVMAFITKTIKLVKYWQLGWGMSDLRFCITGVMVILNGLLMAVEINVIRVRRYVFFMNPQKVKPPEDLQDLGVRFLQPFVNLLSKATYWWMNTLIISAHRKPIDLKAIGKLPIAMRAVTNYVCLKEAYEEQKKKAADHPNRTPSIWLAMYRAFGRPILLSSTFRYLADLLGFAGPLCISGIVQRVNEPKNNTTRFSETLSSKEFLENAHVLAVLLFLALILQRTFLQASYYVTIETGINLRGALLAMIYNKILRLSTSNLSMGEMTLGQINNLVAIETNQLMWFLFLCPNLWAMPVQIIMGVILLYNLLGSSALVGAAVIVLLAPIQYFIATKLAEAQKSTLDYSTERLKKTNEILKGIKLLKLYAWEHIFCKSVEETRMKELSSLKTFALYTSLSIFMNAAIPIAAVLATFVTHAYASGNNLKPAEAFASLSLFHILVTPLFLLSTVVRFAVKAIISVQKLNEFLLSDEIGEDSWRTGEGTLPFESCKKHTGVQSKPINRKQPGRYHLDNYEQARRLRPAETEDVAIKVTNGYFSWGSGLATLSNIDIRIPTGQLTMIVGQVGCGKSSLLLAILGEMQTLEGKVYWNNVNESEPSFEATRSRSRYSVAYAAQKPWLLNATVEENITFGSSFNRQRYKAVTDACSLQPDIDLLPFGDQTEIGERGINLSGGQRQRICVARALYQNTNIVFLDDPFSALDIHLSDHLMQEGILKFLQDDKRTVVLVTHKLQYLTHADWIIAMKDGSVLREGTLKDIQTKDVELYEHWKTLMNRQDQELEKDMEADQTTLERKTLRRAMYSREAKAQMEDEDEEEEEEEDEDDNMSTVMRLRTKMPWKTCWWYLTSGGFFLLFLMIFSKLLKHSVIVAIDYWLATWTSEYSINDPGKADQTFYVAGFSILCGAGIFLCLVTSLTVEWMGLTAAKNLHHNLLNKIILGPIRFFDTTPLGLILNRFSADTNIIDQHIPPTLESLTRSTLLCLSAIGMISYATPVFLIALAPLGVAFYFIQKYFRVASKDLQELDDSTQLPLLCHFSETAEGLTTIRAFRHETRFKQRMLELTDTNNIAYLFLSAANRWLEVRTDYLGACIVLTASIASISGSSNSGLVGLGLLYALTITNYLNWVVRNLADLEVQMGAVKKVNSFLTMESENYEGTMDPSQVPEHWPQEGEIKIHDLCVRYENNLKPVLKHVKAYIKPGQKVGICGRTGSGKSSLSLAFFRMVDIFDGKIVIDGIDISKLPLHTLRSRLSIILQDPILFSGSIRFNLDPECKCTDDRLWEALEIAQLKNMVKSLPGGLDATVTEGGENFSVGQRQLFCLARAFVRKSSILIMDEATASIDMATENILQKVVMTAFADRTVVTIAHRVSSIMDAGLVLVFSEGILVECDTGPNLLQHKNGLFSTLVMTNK
T1 sequence (Q61743 whole entry): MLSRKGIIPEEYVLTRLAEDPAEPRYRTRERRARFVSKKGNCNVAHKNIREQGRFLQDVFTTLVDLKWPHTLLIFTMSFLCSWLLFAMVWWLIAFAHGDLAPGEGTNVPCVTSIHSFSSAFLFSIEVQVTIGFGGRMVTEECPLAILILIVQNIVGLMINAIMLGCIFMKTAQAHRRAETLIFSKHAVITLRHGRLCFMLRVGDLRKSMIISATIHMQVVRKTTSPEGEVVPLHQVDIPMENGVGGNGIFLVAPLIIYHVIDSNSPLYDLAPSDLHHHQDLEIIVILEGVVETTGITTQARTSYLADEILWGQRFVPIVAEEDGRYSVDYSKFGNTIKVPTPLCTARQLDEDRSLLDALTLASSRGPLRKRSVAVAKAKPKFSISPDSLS
Procedure: 1) Action on the SUR2A/Kir6.2 potassium channel (myocardial action) The action of the compounds on the ion transport through the myocardial ATP-sensitive potassium channel (SUR2A/Kir6.2) was determined in the rubidium efflux test system described below on human embryonic kidney cells HEK293 which were transfected with the components SUR2A and Kir6.2 (cf. Weyermann et al., Naunyn-Schmiedeberg's Arch. Pharmacol. 369, 374-381 (2004)).
The HEK293 cells were cultured at 37° C. in a humidified air atmosphere with 7% carbon dioxide in minimal essential medium with Earle's salts and L-glutamine (MEM, Gibco), which was supplemented with 10% fetal calf serum and zeozin (0.36 mg/ml) and geneticin (0.75 mg/ml). The transfection of the cells and the preparation of a cell line with stable expression of Kir6.2 from the mouse (accession number AF037313) and SUR2A from the rat (accession number D83598/L40624) were carried out as described in Giblin et al., J. Biol. Chem. 274, 22652-22659 (1999).
60 000 transfected cells per well were inoculated into a poly-D-lysine-coated 96-well microtiter plate (Greiner #650 201). After incubation for 24 h at 37° C., the cells were washed three times with buffer 1 (150 mM NaCl, 2 mM CaCl2, 0.8 mM NaH2PO4, 1 mM MgCl2, 5 mM glucose, 25 mM HEPES, pH=7.4). Subsequently, the buffer solution was replaced by 100 μl of rubidium loading buffer (buffer 1 with 5.4 mM RbCl) and the cells were incubated for a further 3 h at 37° C. The rubidium loading buffer was then removed by washing the cells three times with 200 μl each of potassium chloride wash buffer (buffer 1 with 5.4 mM KCl). After addition of the test substances (70 μl; dissolved in potassium chloride wash buffer with addition of DMSO), the KATP channels of the cells were opened by addition of 70 μl of rilmakalim (2 μM) (cf. Krause et al., Pflügers Arch. 429, 625-635 (1995)) and the cells were incubated at 37° C. for 25 min. Subsequently, the cell supernatants were transferred to a new 96-well microtiter plate and the cells were lyzed by addition of 200 μl of lysis buffer (buffer 1 with 1% Triton X-100). The concentrations of Rb^+ in the cell supernatant and in the cell lyzate were measured by means of atomic absorption spectroscopy using an Al 1200 apparatus (Aurora Instruments Ltd.).
The Rb^+ efflux rate was calculated as [Rb^+SN]/[Rb^+total], wherein [Rb^+SN] is the amount of Rb^+ in the cell supernatant and [Rb^+total] is the sum of the amounts of Rb^+ in the cell supernatant and cell lyzate. IC50 values for the inhibition of the rubidium efflux were calculated with the aid of the Hill equation.

Compound | IC50
Cc1c(F)cc([C@]2(OCC3CC3)CC[C@](C(=O)O)(c3ccc(F)cc3)CC2)cc1S(=O)(=O)C(C)(C)C [Example 304-2, Cis-4-Cyclopropylmethoxy-4-[3-fluoro-4-methyl-5-(2-methylpropane-2-sulfonyl)phenyl]-1-(4-fluorophenyl)cyclohexanecarboxylic Acid] | < 1000 nM
CC(C)S(=O)(=O)c1cc(F)cc([C@]2(OCC3CC3)CC[C@](C(=O)O)(c3ccc(F)cc3)CC2)c1 [Example 304-1, Cis-4-Cyclopropylmethoxy-1-(4-fluorophenyl)-4-[3-fluoro-5-(propane-2-sulfonyl)phenyl]cyclohexanecarboxylic Acid] | < 1000 nM
O=C(O)[C@]1(c2ccccc2)CC[C@@](OCC2CC2)(c2nc(C(F)(F)F)cn2CC2CC2)CC1 [Example 380] | < 1000 nM
O=C(O)[C@]1(c2ccccc2)CC[C@@](OCC2(c3ccccc3)COC2)(c2nccn2CC2CC2)CC1 [Example 497, 4-(1-Cyclopropylmethyl-1H-imidazol-2-yl)-1-phenyl-4-(3-phenyloxetan-3-ylmethoxy)cyclohexanecarboxylic Acid] | < 1000 nM
O=C(O)[C@]1(c2ccc(F)cc2)CC[C@](Oc2ccccc2)(c2nc3ccccc3n2CC2CC2)CC1 [Example 406] | < 1000 nM
O=C(O)[C@]1(c2ccccc2)CC[C@@](OCC2CC2)(c2nc(Cl)c(Cl)n2CC2CC2)CC1 [Example 387] | < 1000 nM
COC1(c2ccc(F)cc2)CCC(C(=O)O)(c2ccc(C)cc2)CC1 (stereo not drawn) [Example 239] | < 1000 nM
Cc1nc([C@]2(OCC3CC3)CC[C@](C(=O)O)(c3ccccc3)CC2)n(C)c1Cl [Example 391] | < 1000 nM
C=C(CO[C@]1(c2nccn2CC2CC2)CC[C@@](C(=O)O)(c2ccccc2)CC1)c1ccccc1 [Example 495, Cis-4-(1-Cyclopropylmethyl-1H-imidazol-2-yl)-1-phenyl-4-(2-phenylallyloxy)cyclohexanecarboxylic Acid] | < 1000 nM
O=C(O)C1(c2ccccc2)CCC(O)(c2cccc(C(F)(F)F)c2)CC1 (stereo not drawn) [Example 102] | < 1000 nM
O=C(O)[C@]1(c2ccccc2)CC[C@](OCC2CC2)(c2nc(-c3ccccc3)cs2)CC1 [Example 333-2, Trans-4-Cyclopropylmethoxy-1-phenyl-4-(4-phenylthiazol-2-yl)cyclohexanecarboxylic Acid] | < 1000 nM
O=C(O)C1(c2ccccc2)CCC(O)(c2c(F)cc(F)cc2F)CC1 (stereo not drawn) [Example 98] | < 1000 nM
COC1(c2ccccc2S(C)(=O)=O)CCC(C(=O)O)(c2ccccc2)CC1 (stereo not drawn) [Example 172] | < 1000 nM
Cc1nc([C@]2(OCC3CC3)CC[C@](C(=O)O)(c3cccnc3)CC2)n(CC2CC2)c1Cl [Example 407] | < 1000 nM
O=C(O)[C@]1(c2ccccc2)CC[C@@](OCC2CC2)(c2ncc(C(F)(F)F)n2CC2CC2)CC1 [Example 378] | < 1000 nM
O=C(O)[C@]1(c2ccccc2)CC[C@](OCC2CC2)(c2nc3cc(Cl)ccc3n2CC2CC2)CC1 [Example 451] | < 1000 nM
CS(=O)(=O)c1ccccc1C1(OCC2CC2)CCC(C(=O)O)(c2ccc(F)cc2)CC1 (stereo not drawn) [Example 254] | < 1000 nM
O=C(O)[C@]1(c2ccccc2)CC[C@](OCC2CC2)(c2cc(-c3ccccc3)ccn2)CC1 [Example 486, Trans-4-Cyclopropylmethoxy-1-phenyl-4-(4-phenylpyridin-2-yl)cyclohexanecarboxylic Acid] | < 1000 nM
CCCn1c(Cl)c(C)nc1[C@]1(OCC2CC2)CC[C@](C(=O)O)(c2ccccc2)CC1 [Example 388] | < 1000 nM
CS(=O)(=O)c1cc(F)ccc1C1(OCC2CC2)CCC(C(=O)O)(c2ccc(F)cc2)CC1 (stereo not drawn) [Example 253] | < 1000 nM
CCCn1c(Cl)c(C)nc1[C@]1(OCCOC)CC[C@](C(=O)O)(c2ccccc2)CC1 [Example 390] | < 1000 nM
O=C(O)[C@]1(c2ccccc2)CC[C@@](OCC2CC2)(c2nccn2CC2CC2)CC1 [Example 492, Cis-Cyclopropylmethoxy-4-(1-cyclopropylmethyl-1H-imidazol-2-yl)-1-phenylcyclohexanecarboxylic Acid] | < 1000 nM
CCCOC1(c2cccc(S(C)(=O)=O)c2)CCC(C(=O)O)(c2ccccc2)CC1 (stereo not drawn) [Example 168] | < 1000 nM
CCOC1(c2cccc(S(C)(=O)=O)c2)CCC(C(=O)O)(c2ccccc2)CC1 (stereo not drawn) [Example 167] | < 1000 nM
COC1(c2ccc(SC)cc2)CCC(C(=O)O)(c2ccccc2)CC1 (stereo not drawn) [Example 163, 4-Methoxy-4-(4-methylsulfanylphenyl)-1-phenylcyclohexanecarboxylic Acid] | < 1000 nM

More lines, now with the values ahead:

IC50 | Compound
< 1000 nM | CS(=O)(=O)c1ccc(-c2nc([C@]3(Oc4ccccc4)CC[C@@](C(=O)O)(c4ccccc4)CC3)n(CC3CC3)n2)cc1 [Example 467]
< 1000 nM | O=C(O)C1(c2ccccc2)CCC(O)(c2ccc(Cl)c(C(F)(F)F)c2)CC1 (stereo not drawn) [Example 104]
< 1000 nM | COC1(c2ccc(Cl)cn2)CCC(C(=O)O)(c2ccccc2)CC1 (stereo not drawn) [Example 137]
< 1000 nM | CCCOC1(c2ccc(F)cc2SC)CCC(C(=O)O)(c2ccc(F)cc2)CC1 (stereo not drawn) [Example 242]
< 1000 nM | Cc1ccc(C2(O)CCC(C(=O)O)(c3ccccc3)CC2)cc1F (stereo not drawn) [Example 100]
< 1000 nM | Cc1c(Br)nc([C@]2(OCCC(C)C)CC[C@](C(=O)O)(c3ccccc3)CC2)n1CC1CC1 [Example 374]
< 1000 nM | CCCOC1(c2cc(F)ccc2SC)CCC(C(=O)O)(c2ccc(F)cc2)CC1 (stereo not drawn) [Example 248]
< 1000 nM | O=C(O)C1(c2ccccc2)CCC(O)(c2ccc(F)cc2F)CC1 (stereo not drawn) [Example 95]
< 1000 nM | Cc1nc([C@]2(OCC3CC3)CC[C@](C(=O)O)(c3ccccc3)CC2)n(CC2CC2)c1Cl [Example 382]
< 1000 nM | Cc1nc([C@]2(OCC3CC3)CC[C@](C(=O)O)(c3cccc(OC(F)(F)F)c3)CC2)n(CC2CC2)c1Cl [Example 409]
< 1000 nM | COC1(c2ccc(F)cc2)CCC(C(=O)O)(c2cccc(F)c2)CC1 (stereo not drawn) [Example 234]
< 1000 nM | COc1ccc(C2(OC)CCC(C(=O)O)(c3ccccc3)CC2)cc1F (stereo not drawn) [Example 131]
< 1000 nM | CSc1ccc(F)cc1C1(OCC2CC2)CCC(C(=O)O)(c2ccc(F)cc2)CC1 (stereo not drawn) [Example 247]
< 1000 nM | O=C(O)[C@]1(c2ccc(F)cc2)CC[C@@](OCC2CC2)(c2nc3ccccc3n2CC2CC2)CC1 [Example 366]
< 1000 nM | O=C(O)[C@]1(c2ccccc2)CC[C@](OCC2CC2)(c2nccn2CC2CC2)CC1 [Example 493, Trans-Cyclopropylmethoxy-4-(1-cyclopropylmethyl-1H-imidazol-2-yl)-1-phenylcyclohexanecarboxylic Acid]
< 1000 nM | Cc1nc([C@]2(OCC3CC3)CC[C@@](C(=O)O)(c3ccc(F)cc3)CC2)n(CC2CC2)c1Br [Example 369]
< 1000 nM | Cc1ccc([C@]2(C(=O)O)CC[C@](OCC3CC3)(c3nc4ccccc4n3CC3CC3)CC2)cc1 [Example 412]
< 1000 nM | O=C(O)[C@]1(c2ccccc2)CC[C@@](OCC2CC2)(c2nc(-c3ccccc3)cs2)CC1 [Example 333-1, Cis-4-Cyclopropylmethoxy-1-phenyl-4-(4-phenylthiazol-2-yl)cyclohexanecarboxylic Acid]
< 1000 nM | COC1(c2ccc(C)c(F)c2)CCC(C(=O)O)(c2ccccc2)CC1 (stereo not drawn) [Example 123]
< 1000 nM | COC1(c2cccc(F)c2)CCC(C(=O)O)(c2ccccc2)CC1 (stereo not drawn) [Example 119]
